Measurements as given in patent US12686652B2, “Methods of increasing irrigation water and fertilizer delivery to soil using formic acid and formate salts, making a formate salt from carbon dioxide, and generating a carbon credit” (Deerpoint Group, Inc., priority 2023, dated 2026).
“And” between values parts separate entries of the source, which are not always exact repeats. Equal values may be shown once. Read-outs that look alike come from different tables or passages of the source.

Legend:
[1] = for Solubility as percentage of the solubility of potassium formate in water: 68-86° F. (20-30° C.); for Solubility (g K2O/100 g H2O): water
Description: The table below lists the solubilities of various potassium fertilizers in water (as K2O) on a weight basis:

[2] = first farm soil, duplicate columns A and B
[3] = first pass
Description: The irrigation water at the second farm was from a different source than the first farm.

[4] = ICP and flow injection (FIA) analyses of solutions passed through soil columns, second farm; conditions: single soil sample
Description: FIA was used to determine the content of the listed anion (e.g., NO3, Cl, PO4, etc.). Results are presented from a single soil sample.

[5] = for Drainage Rate: Time (50 g), percentage relative to irrigation water / Drainage Rate: liquid eluted at 60 mins, percentage relative to irrigation water / Drainage Rate: liquid eluted at 120 mins, percentage relative to irrigation water / Liquid Eluted after 60 min / Liquid Eluted after 120 min / Time (50 g of liquid, in min) / More liquid eluted by mass than the irrigation water: first farm soil; for Liquid Eluted after 60 min / Liquid Eluted after 120 min / Time (50 g of liquid, in min): Ca formate 22 ppm by moles, HCO2H 0.33% by weight, average of two columns
Description: The objective was to investigate the behavior of different irrigation water treatments and determine the relative amounts of water that passed through the soil columns. The column retention times reflect the rate at which the liquid passes through the soil. Understanding these retention times provides insights about the transport and movement of irrigation water (and any fertilizers dissolved therein) through the soil, which has implications for the volume of water passing into and through the root zone, nutrient availability to crops, leaching of contaminants, and overall soil health.
The data in Table 1 is for the average of the two soil samples.

[6] = 1st pass, Alternating = formic acid pass
[7] = 2nd pass, Alternating = calcium formate pass
[8] = 3rd pass, Alternating = formic acid pass
[9] = 4th pass, Alternating = calcium formate pass
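Wherever Mn in solution passed through soil column (ICP) is given: eluate from PVC columns holding 100 g of dry ground farm soil, analysed by ICP-OES for element content after the solution had drained through, irrigation water measured as received for reference.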

O=S([O-])([O-])=S.[K+].[K+] [K2SSO3, potassium thiosulfate]
Solubility as percentage of the solubility of potassium formate in water [1]: about 40% | Solubility (g K2O/100 g H2O) ([1]; 32 ° F.): 48 g K2O/100 g H2O | Solubility (g K2O/100 g H2O) ([1]; 68 ° F.): 77 g K2O/100 g H2O | Solubility (g K2O/100 g H2O) ([1]; 86 ° F.): 87 g K2O/100 g H2O

O=CO [HCO2H, formic acid]
B in solution passed through soil column (ICP) ([2]; 1st pass): 4.34 ppm and 4.25 ppm | Ca in solution passed through soil column (ICP) ([2]; 1st pass): 268.8 ppm and 261.2 ppm | K in solution passed through soil column (ICP) ([2]; 1st pass): 19.52 ppm and 18.52 ppm | Mg in solution passed through soil column (ICP) ([2]; 1st pass): 107.6 ppm and 103.1 ppm | Mn in solution passed through soil column (ICP) ([2]; 1st pass): 4.40 ppm and 4.25 ppm | Na in solution passed through soil column (ICP) ([2]; 1st pass): 111.2 ppm and 109.8 ppm | P in solution passed through soil column (ICP) ([2]; 1st pass): 1.06 ppm and 0.55 ppm | S in solution passed through soil column (ICP) ([2]; 1st pass): 83.5 ppm and 74.5 ppm | Si in solution passed through soil column (ICP) ([2]; 1st pass): 31.3 ppm and 30.9 ppm | B in solution passed through soil column (ICP) ([2]; 2nd pass): 2.42 ppm and 2.41 ppm | Ca in solution passed through soil column (ICP) ([2]; 2nd pass): 173.7 ppm and 205.0 ppm | K in solution passed through soil column (ICP) ([2]; 2nd pass): 15.36 ppm and 17.82 ppm | Mg in solution passed through soil column (ICP) ([2]; 2nd pass): 69.7 ppm and 79.2 ppm | Mn in solution passed through soil column (ICP) ([2]; 2nd pass): 3.32 ppm and 3.98 ppm | Na in solution passed through soil column (ICP) ([2]; 2nd pass): 53.9 ppm and 49.3 ppm | P in solution passed through soil column (ICP) ([2]; 2nd pass): 1.01 ppm and 0.73 ppm | S in solution passed through soil column (ICP) ([2]; 2nd pass): 22.8 ppm and 22.1 ppm | Si in solution passed through soil column (ICP) ([2]; 2nd pass): 34.1 ppm and 40.9 ppm | B in solution passed through soil column (ICP) ([2]; 3rd pass): 2.09 ppm and 1.82 ppm | Ca in solution passed through soil column (ICP) ([2]; 3rd pass): 167.8 ppm and 176.4 ppm | K in solution passed through soil column (ICP) ([2]; 3rd pass): 14.81 ppm and 16.46 ppm | Mg in solution passed through soil column (ICP) ([2]; 3rd pass): 66.6 ppm and 67.2 ppm | Mn in solution passed through soil column (ICP) ([2]; 3rd pass): 5.00 ppm and 5.23 ppm | Na in solution passed through soil column (ICP) ([2]; 3rd pass): 36.5 ppm and 31.2 ppm | P in solution passed through soil column (ICP) ([2]; 3rd pass): 1.09 ppm and 0.90 ppm | S in solution passed through soil column (ICP) ([2]; 3rd pass): 13.4 ppm and 11.5 ppm | Si in solution passed through soil column (ICP) ([2]; 3rd pass): 46.9 ppm and 49.9 ppm | B in solution passed through soil column (ICP) ([2]; 4th pass): 0.79 ppm and 0.73 ppm | Ca in solution passed through soil column (ICP) ([2]; 4th pass): 130.3 ppm and 140.7 ppm | K in solution passed through soil column (ICP) ([2]; 4th pass): 13.34 ppm and 15.64 ppm | Mg in solution passed through soil column (ICP) ([2]; 4th pass): 50.6 ppm and 52.5 ppm | Mn in solution passed through soil column (ICP) ([2]; 4th pass): 4.46 ppm and 4.84 ppm | Na in solution passed through soil column (ICP) ([2]; 4th pass): 16.6 ppm and 16.4 ppm | P in solution passed through soil column (ICP) ([2]; 4th pass): 1.33 ppm and 1.63 ppm | S in solution passed through soil column (ICP) ([2]; 4th pass): 3.7 ppm and 3.6 ppm | Si in solution passed through soil column (ICP) ([2]; 4th pass): 34.1 ppm and 35.3 ppm | Liquid retained by the soil samples on average ([3]; dry soil, second farm (FIG. 3)): 41 to 42 mL | Time of first appearance of liquid from the columns on average ([3]; dry soil, second farm (FIG. 3)): < 20 min | Amount of liquid passed through the columns compared with irrigation water at the same lengths of time ([3]; second farm, from 20-30 minutes up to 240 minutes): more than three times as much | B in solution passed through soil column (ICP) [4, 6]: 0.6 ppm | Ca in solution passed through soil column (ICP) [4, 6]: 260.7 ppm | Cl^− in solution passed through soil column (FIA) [4, 6]: 304.0 ppm | K in solution passed through soil column (ICP) [4, 6]: 9.7 ppm | Mg in solution passed through soil column (ICP) [4, 6]: 69.3 ppm | NO3^− in solution passed through soil column (FIA) [4, 6]: 0.0 ppm | Na in solution passed through soil column (ICP) [4, 6]: 345.5 ppm | P in solution passed through soil column (ICP) [4, 6]: 0.7 ppm | S in solution passed through soil column (ICP) [4, 6]: 43.8 ppm | Si in solution passed through soil column (ICP) [4, 6]: 31.8 ppm | B in solution passed through soil column (ICP) [4, 7]: 0.5 ppm | Ca in solution passed through soil column (ICP) [4, 7]: 312.7 ppm | Cl^− in solution passed through soil column (FIA) [4, 7]: 102.8 ppm | K in solution passed through soil column (ICP) [4, 7]: 9.0 ppm | Mg in solution passed through soil column (ICP) [4, 7]: 81.3 ppm | NO3^− in solution passed through soil column (FIA) [4, 7]: 0.0 ppm | Na in solution passed through soil column (ICP) [4, 7]: 175.2 ppm | P in solution passed through soil column (ICP) [4, 7]: 1.9 ppm | S in solution passed through soil column (ICP) [4, 7]: 11.4 ppm | Si in solution passed through soil column (ICP) [4, 7]: 43.1 ppm | B in solution passed through soil column (ICP) [4, 8]: 0.4 ppm | Ca in solution passed through soil column (ICP) [4, 8]: 337.4 ppm | Cl^− in solution passed through soil column (FIA) [4, 8]: 91.7 ppm | K in solution passed through soil column (ICP) [4, 8]: 9.9 ppm | Mg in solution passed through soil column (ICP) [4, 8]: 84.0 ppm | NO3^− in solution passed through soil column (FIA) [4, 8]: 0.0 ppm | Na in solution passed through soil column (ICP) [4, 8]: 79.9 ppm | P in solution passed through soil column (ICP) [4, 8]: 5.8 ppm | S in solution passed through soil column (ICP) [4, 8]: 8.0 ppm | Si in solution passed through soil column (ICP) [4, 8]: 51.9 ppm | B in solution passed through soil column (ICP) [4, 9]: 0.3 ppm | Ca in solution passed through soil column (ICP) [4, 9]: 286.6 ppm | Cl^− in solution passed through soil column (FIA) [4, 9]: 92.9 ppm | K in solution passed through soil column (ICP) [4, 9]: 10.6 ppm | Mg in solution passed through soil column (ICP) [4, 9]: 65.5 ppm | NO3^− in solution passed through soil column (FIA) [4, 9]: 0.0 ppm | Na in solution passed through soil column (ICP) [4, 9]: 66.1 ppm | P in solution passed through soil column (ICP) [4, 9]: 6.4 ppm | S in solution passed through soil column (ICP) [4, 9]: 8.3 ppm | Si in solution passed through soil column (ICP) [4, 9]: 65.2 ppm | Drainage Rate: Time (50 g), percentage relative to irrigation water ([5]; 1st pass): 50.0% | Drainage Rate: liquid eluted at 60 mins, percentage relative to irrigation water ([5]; 1st pass): 214% | Drainage Rate: liquid eluted at 120 mins, percentage relative to irrigation water ([5]; 1st pass): 168% | Liquid Eluted after 60 min ([5]; 1st pass): 34.1 g | Liquid Eluted after 120 min ([5]; 1st pass): 59.7 g | Time (50 g of liquid, in min) ([5]; 1st pass): 90 min | Drainage Rate: Time (50 g), percentage relative to irrigation water ([5]; 2nd pass): 50.0% | Drainage Rate: liquid eluted at 60 mins, percentage relative to irrigation water ([5]; 2nd pass): 206% | Drainage Rate: liquid eluted at 120 mins, percentage relative to irrigation water ([5]; 2nd pass): 198% | Liquid Eluted after 60 min ([5]; 2nd pass): 43.9 g | Liquid Eluted after 120 min ([5]; 2nd pass): 78.9 g | Time (50 g of liquid, in min) ([5]; 2nd pass): 90 min | Drainage Rate: Time (50 g), percentage relative to irrigation water ([5]; 3rd pass): 50.0% | Drainage Rate: liquid eluted at 60 mins, percentage relative to irrigation water ([5]; 3rd pass): 189% | Drainage Rate: liquid eluted at 120 mins, percentage relative to irrigation water ([5]; 3rd pass): 189% | Liquid Eluted after 60 min ([5]; 3rd pass): 36.0 g | Liquid Eluted after 120 min ([5]; 3rd pass): 68.3 g | Time (50 g of liquid, in min) ([5]; 3rd pass): 90 min | Drainage Rate: Time (50 g), percentage relative to irrigation water ([5]; 4th pass): 50.0% | Drainage Rate: liquid eluted at 60 mins, percentage relative to irrigation water ([5]; 4th pass): 207% | Drainage Rate: liquid eluted at 120 mins, percentage relative to irrigation water ([5]; 4th pass): 183% | Liquid Eluted after 60 min ([5]; 4th pass): 40.5 g | Liquid Eluted after 120 min ([5]; 4th pass): 69.5 g | Time (50 g of liquid, in min) ([5]; 4th pass): 90 min | Liquid retained by the soil samples on average ([5]; first pass, dry soil, first farm, 100 ml added (FIG. 1)): about 36 ml | More liquid eluted by mass than the irrigation water ([5]; first pass): 170-210% | More liquid eluted by mass than the irrigation water ([5]; fourth pass): 180-210% | More liquid eluted by mass than the irrigation water ([5]; second pass): 200-210% | More liquid eluted by mass than the irrigation water ([5]; third pass): ~ 190%

[Cl-].[K+] [KCl, potassium chloride]
Solubility as percentage of the solubility of potassium formate in water [1]: about 12% | Solubility (g K2O/100 g H2O) ([1]; 32 ° F.): 18 g K2O/100 g H2O | Solubility (g K2O/100 g H2O) ([1]; 68 ° F.): 22 g K2O/100 g H2O | Solubility (g K2O/100 g H2O) ([1]; 86 ° F.): 24 g K2O/100 g H2O
